# Measured values: article PMC11678237 (2024)
# Experiments:
# [1] = system: poly(dA)•2poly(dT) (DNA, polymer) A/T; assay: UV melting, 260 nm; conditions: pH 7.0; for binding / ΔTm3→2: 150 mM KCl, 10 mM sodium cacodylate; for ΔTm3→2: per base
# [2] = system: DNA3 (DNA, triplex) GAAAAAAAAAAAAAGTTTTCTTTTTTTTTTTTCTTTTCTTTTTTTTTTTTTC; assay: ITC; conditions: 100 mM NaCl, 10 mM sodium cacodylate, pH 7.0, 15 °C; for Kd: independent model
# [3] = system: DNA4 (DNA, hairpin) GAAAAAAAAAAAAAGTTTTCTTTTTTTTTTTTTC; assay: ITC; conditions: 100 mM NaCl; 10 mM sodium cacodylate, pH 7.0, 15 °C; 100 μM ligand titrant; heat of dilution only
# [4] = system: DNA3 (DNA, triplex) GAAAAAAAAAAAAAGTTTTCTTTTTTTTTTTTCTTTTCTTTTTTTTTTTTTC; assay: CD titration; conditions: 100 mM NaCl; 10 mM sodium cacodylate, pH 7.0, 15 °C; 0 to 50 μM compound
# [5] = system: poly(dA)•2poly(dT) (DNA, polymer) A/T; assay: viscosity; conditions: 150 mM KCl; 10 mM sodium cacodylate, pH 7.0, room temperature; intercalation
# [6] = system: DNA4 (DNA, hairpin) GAAAAAAAAAAAAAGTTTTCTTTTTTTTTTTTTC; assay: CD titration; conditions: 100 mM NaCl; 10 mM sodium cacodylate, pH 7.0, 15 °C; 0 to 50 μM compound
# [7] = system: poly(dA)•poly(dT) (DNA, polymer) A/T; assay: UV melting; conditions: 150 mM KCl; 10 mM sodium cacodylate, pH 7.0; 10 μM compound; Tm2→1 stays near 72 °C
# [8] = system: DNA1/DNA2/TFO1 triplex (DNA, triplex) ATGGCAAAAAAAAGGAGAAGCTGACCACCTGACTA/TAGTCAGGTGGTCAGCTTCTCCTTTTTTTTGCCAT/CTTTCTTTTTTTTTCCTCTTC; assay: native PAGE gel shift; conditions: none added; 90 mM Tris–acetate, pH 5.0; 1 to 100 μM compound; triplex formation promoted
# [9] = 10 μM compound, 15 μM base triplet
# [10] = 10 mM lithium cacodylate, no added salt, 10 μM compound, Tm not shift, no triplex without ligand, duplex Tm 58 °C
smiles,measurement,setting,value
CC(C)CCCOc1cccc2oc(-c3ccccc3)cc(=O)c12,binding,[1]; [9],no
CCCN(CCC)CCCOc1cccc2oc(-c3ccccc3)cc(=O)c12,ΔTm3→2,[1]; [9],23.8 °C
CCN(CC)CCCOc1cccc2oc(-c3ccccc3)cc(=O)c12,ΔTm3→2,[1]; [9],24.4 °C
CN1CCN(CCCOc2cccc3oc(-c4ccccc4)cc(=O)c23)CC1,ΔTm3→2,[1]; [9],25.7 °C
NCCCOc1cccc2oc(-c3ccccc3)cc(=O)c12,ΔTm3→2,[1]; [9],23.2 °C
NC[C@@H]1O[C@H](O[C@H]2[C@@H](O)[C@H](O[C@@H]3[C@@H](O)[C@H](N)C[C@H](N)[C@H]3O[C@H]3O[C@H](CN)[C@@H](O)[C@H](O)[C@H]3N)O[C@@H]2CO)[C@H](N)[C@@H](O)[C@@H]1O,binding,"[1]; 0 to 20 μM compound, no effect at 0.5 μM",yes
O=c1cc(-c2ccccc2)oc2cccc(O)c12,binding,[1]; [9],weak
same,binding,"[2]; 100 μM ligand titrant, heat of dilution only",no
O=c1cc(-c2ccccc2)oc2cccc(OCCCCN3CCCCC3)c12,Tm3→2,[1]; [10],40 °C
same,ΔTm3→2,[1]; [9],12.1 °C
same,Kd,[2],3.08 ± 1.26 × 10^-5 M
O=c1cc(-c2ccccc2)oc2cccc(OCCCN3CCCC3)c12,ΔTm3→2,[1]; [9],19.4 °C
O=c1cc(-c2ccccc2)oc2cccc(OCCCN3CCCCC3)c12,binding,[3],no
same,binding,[4],yes
same,Tm3→1,[1]; [10],60.7 °C
same,binding,[5],yes
same,binding,[6],no
same,binding,[7],no
same,binding,[8],yes
same,Kd,[2],1.01 ± 0.20 × 10^-5 M
O=c1cc(-c2ccccc2)oc2cccc(OCCCN3CCOCC3)c12,ΔTm3→2,[1]; [9],26.7 °C
O=c1cc(-c2ccccc2)oc2cccc(OCCCO)c12,ΔTm3→2,[1]; [9],5.4 °C
O=c1cc(-c2ccccc2)oc2cccc(OCCN3CCCCC3)c12,Tm3→2,[1]; [10],55 °C
same,ΔTm3→2,[1]; [9],22.6 °C
same,Kd,[2],2.10 ± 1.12 × 10^-5 M
